Source: US6440987B1, “Antipruritic” (Toray Industries, Inc., priority 1996, dated 2002)

Tests used:
[1] = system: guinea pig ileum; assay: Assay of opioid activity by guinea pig ileum assay (electrically evoked contraction of longitudinal muscle strip); conditions: for IC50: Cavia porcellus, inhibition of electrically evoked contraction, absence of antagonist; for Ke (nM) Naloxone (100 nM): naloxone as μ antagonist; for Ke (nM) nor-BNI (5 nM): nor-BNI as κ antagonist
Description: Assay of opioid activity by Guinea pig ileum assay.
Male Hartley guinea pigs were used. The guinea pig was killed with a blow, and the ileum excised; the lumen of ileum was washed with a nutritious fluid; and only a piece of longitudinal muscle was stripped. This longitudinal muscle strip was suspended in a Magnus tube filled with Krebes-Henseleit solution (NaCl 135 mM; KCl 4.8 mM; CaCl2 3.4 mM; KH2PO4 1.2 mM; NaHCO3 8.3 mM; MgSO4, 2.5 mM; and glucose 11 mM) kept at 37° C., and gassed with a mixture of 5% carbon dioxide and 95% oxygen. Electrical stimulation was delivered at a rate of 0.1 Hz with 0.5 ms pulses through ring-shaped platinum electrodes placed at upper and lower levels in a Magnus tube. Tissue contractions were recorded via an isometric transducer on a polygraph.
The test drug was cumulatively added until it inhibited over 50% the contraction of specimen evoked by the electrical stimulation, in the presence or absence of naloxone as a μ antagonist, or nor-BNI as a κ antagonist, and IC50s were calculated for respective experimental conditions. From the difference in drug efficacy in the presence and absence of the antagonist, Ke values were calculated on the basis of following equations.
(§1) Ke=[Concentration of antagonist added]/(Dose ratio−1)
Dose ratio=IC50 in the presence of antagonist/IC50 in the absence of antagonist

[2] = system: mouse vas deferens; assay: Assay of opioid activity by mouse vas deferens assay (electrically evoked contraction); conditions: for Ke (nM) NTI (10 nM): NTI as δ antagonist; for IC50: inhibition of electrically evoked contraction, absence of antagonist; for Ke (nM) Naloxone (30 nM): naloxone as μ antagonist; for Ke (nM) nor-BNI (10 nM): nor-BNI as κ antagonist
Description: Assay of opioid activity by mouse vas deferens assay
Male ddY mice were used for the experiment. The vas deferens specimen removed from the animal was suspended in a Magnus tube filled with Krebes-Henseleit solution (NaCl […]; KCl 5.9 mM; CaCl2 2.5 mM; NaH2PO4 1.2 mM; NaHCO3 15.3 mM; and glucose 11.5 mM) kept at 37° C., and gassed with a mixture of 5% carbon dioxide and 95% oxygen. Electrical stimulation was delivered at a rate of 0.1 Hz with 1.0 ms pulses through ring-shaped platinum electrodes placed at upper and lower levels in a Magnus tube. Tissue contractions were recorded via an isometric transducer on a polygraph.
test drug was cumulatively added until it inhibited over 50% the contraction of specimen evoked by the electrical stimulation, in the presence or absence of naloxone as a μ antagonist, nor-BNI as a κ antagonist, or NTI as a δ antagonist and IC50s were calculated for respective experimental conditions. From the difference in drug efficacy in the presence and absence of the antagonist, Ke values were calculated on the basis of following equations.
as §1
IC50 ratio=IC50 in the presence of antagonist/IC50 in the absence of antagonist

[3] = system: itching of erupted lesions of urticaria; assay: Topical application to erupted lesions of urticaria, intensity of itching; format: in vivo, human; parameters: key to Intensity of itching five minutes after the treatment: itching whose intensity was evaluated as moderate (ranked as “++”); completely eradicated five minutes after the treatment (ranked as “−”); conditions: male adult
Description: An opioid compound selectively acting on a κ receptor, (−)-17-(cyclopropylmethyl)-3,14β-dihydroxy-4,5α-epoxy-6β-[N-methyl-trans-3-(3-furyl)acrylamido]morphinan hyrochloride 7, [drawing 52]
was dissolved in physiological saline, to give an aqueous solution with a concentration of 40 μg/ml. This aqueous solution was topically applied to three erupted lesions of urticaria, on the lower limb of an adult at a dose of 0.2 μg/cm^2.

[4] = system: itching due to atopic dermatitis; assay: Topical application to skin lesions of a patient with atopic dermatitis, intensity of itching; format: in vivo, human
Description: The drug solution was applied on five spots with a volume of about 50 μl per 10 cm^2, which was equivalent to a topical dose of 0.2 μg/cm^2. As a comparison, indomethacin cream (having a drug concentration of 7.5 mg/g) was applied at a dose of 75 μg/cm2 in the same manner.

[5] = system: scratching behavior induced by Compound 48/80; parameters: species or system ddY mice; conditions: mouse, in vivo, sc
[6] = topical, Compound 7 0.2 μg/cm^2, indomethacin cream 75 μg/cm2, prior to application +++

SMILES | IC50 [1] [nM] | Ke (nM) Naloxone (100 nM) [1] [nM] | Ke (nM) nor-BNI (5 nM) [1] [nM] | Ke (nM) NTI (10 nM) [2] [nM] | IC50 [2] [nM] | Ke (nM) Naloxone (30 nM) [2] [nM] | Ke (nM) nor-BNI (10 nM) [2] [nM] | melting point | Inhibition (%) of scratching behavior [5] [%] | other results
CN(C(=O)/C=C/c1ccoc1)[C@@H]1CC[C@@]2(O)[C@H]3Cc4ccc(O)c5c4[C@@]2(CC[N+]3(C)CC2CC2)[C@H]1O5.[I-] (stereo partly drawn) [Compound 1, 17-cyclopropylmethyl-3,14β-dihydroxy-4,5α-epoxy-17-methyl-6β-(N-methyl-trans-3-(3-furyl)acrylamido)morphinanium iodide] | 1.94 | 16.67 | 0.03 | 11.23 | 4.42 | 14.18 | 0.17 | 202.4 to 207.9 °C (dec.) |  | 
COc1cccc(/C=C/C(=O)N(C)[C@@H]2CC[C@@]3(O)[C@H]4Cc5ccc(O)c6c5[C@@]3(CC[N+]4(C)CC3CC3)[C@H]2O6)c1.[I-] (stereo partly drawn) [Compound 2, 17-cyclopropylmethyl-3,14β-dihydroxy-4,5α-epoxy-17-methyl-6β-(N-methyl-3-methoxycinnamamido)morphinanium.iodide] | 6.71 | 98.2 | 0.54 | 25 | 5.9 | 100 | 0.45 |  |  | 
CN(C(=O)/C=C/c1ccoc1)[C@@H]1CC[C@@]2(O)[C@H]3Cc4ccc(O)c5c4[C@@]2(CC[N+]3([O-])CC2CC2)[C@H]1O5 (stereo partly drawn) [Compound 3, 17-cyclopropylmethyl-4,5α-epoxy-3,14β-dihydroxy-6β-[N-methyl-trans-3-(3-furyl)acrylamido]morphinan-N-oxide] | 1.06 |  | 0.02 |  | 2.14 | 30.48 | 0.040 | 238 to 239.8 °C (dec.) |  | 
COc1cccc(/C=C/C(=O)N(C)[C@@H]2CC[C@@]3(O)[C@H]4Cc5ccc(O)c6c5[C@@]3(CC[N+]4([O-])CC3CC3)[C@H]2O6)c1 (stereo partly drawn) [Compound 4, 17-cyclopropylmethyl-4,5α-epoxy-3,14β-dihydroxy-6β-(N-methyl-3-methoxycinnamamido)morphinan-N-oxide] | 4.09 | 28.7 | 0.09 | 11 | 1.8 | 50 | 0.67 | 234 to 236.8 °C (dec.) |  | 
CN(C(=O)C#Cc1ccc(C(F)(F)F)cc1)[C@@H]1CC[C@@]2(O)[C@H]3Cc4ccc(O)c5c4[C@@]2(CC[N+]3([O-])CC2CC2)[C@H]1O5 (stereo partly drawn) [Compound 5, 17-cyclopropylmethyl-4,5α-epoxy-3,14β-dihydroxy-6β-[N-methyl-3-(4-trifluoromethylphenyl)propyolamido]morphinan-N-oxide] | 1.55 | 29.5 | 0.19 | 5.0 | 0.59 | 5.9 | 0.33 | 205 to 208 °C (dec.) |  | 
Cc1cccc(C#CC(=O)N(C)[C@@H]2CC[C@@]3(O)[C@H]4Cc5ccc(O)c6c5[C@@]3(CC[N+]4([O-])CC3CC3)[C@H]2O6)c1 (stereo partly drawn) [Compound 6, 17-cyclopropylmethyl-4,5α-epoxy-3,14β-dihydroxy-6β-[N-methyl-3-(3-methylphenyl)propyolamido]morphinan-N-oxide] | 11.3 | 75.1 | 0.89 | 20 | 4.6 |  | 0.26 | 192 to 202 °C (dec.) |  | 
CN(C(=O)/C=C/c1ccoc1)[C@@H]1CC[C@@]2(O)[C@H]3Cc4ccc(O)c5c4[C@@]2(CCN3CC2CC2)[C@H]1O5.Cl [Compound 7, (−)-17-(cyclopropylmethyl)-3,14β-dihydroxy-4,5α-epoxy-6β-[N-methyl-trans-3-(3-furyl)acrylamido]morphinan hyrochloride] |  |  |  |  |  |  |  |  |  | Intensity of itching five minutes after the treatment ([3]; urticaria lesions on lower limb, topical 0.2 μg/cm^2 (40 μg/ml in saline), before treatment “++”): −; Duration of no itching state ([3]; urticaria, topical 0.2 μg/cm^2): about five; Duration of no itching state ([4]; topical 0.2 μg/cm^2): at least three; Relief from itching (in words) ([4]; topical, Compound 7 0.2 μg/cm^2 (in five minutes), indomethacin cream 75 μg/cm2): eradicated itching completely; Intensity of itching 5 minutes after application [4, 6]: −; Intensity of itching 10 minutes after application [4, 6]: −; Intensity of itching 3 hours after application [4, 6]: −
CN(C(=O)NCc1ccccc1)[C@H]1CC[C@@]2(O)[C@H]3Cc4ccc(O)c5c4[C@@]2(CCN3CC2CC2)[C@H]1O5.O=C(O)C(O)C(O)C(=O)O [Compound 12, 17-cyclopropylmethyl-3,14β-dihydroxy-4,5α-epoxy-6α-(N-methyl-N-benzylureido)morphinan tartrate] |  |  |  |  |  |  |  |  | 39 | 
CN(C(=O)Cc1ccc(Cl)c(Cl)c1)C(CN1CCCC1)c1ccccc1.Cl (stereo not drawn) [Compound 20] |  |  |  |  |  |  |  |  | 62 | 
Cl.O=C(C1CCc2cc(Cl)c(Cl)cc21)N1CCSCC1CN1CCCC1 (stereo not drawn) [Compound 21, 3-(1-pyrrolidinylmethyl)-4-[5,6-dichloro-1-indancarbonyl]-tetrahydro-1,4-thiazine hydrochloride] |  |  |  |  |  |  |  |  | 23 | 
